In general, IC50 refers to the concentration at which inhibition is half-maximal. A higher IC50 goes with a need for much substance.

The target of the assay is T1, Tumor necrosis factor receptor superfamily member 1A (Homo sapiens, UniProt P19438).
T1 sequence (P19438 whole entry): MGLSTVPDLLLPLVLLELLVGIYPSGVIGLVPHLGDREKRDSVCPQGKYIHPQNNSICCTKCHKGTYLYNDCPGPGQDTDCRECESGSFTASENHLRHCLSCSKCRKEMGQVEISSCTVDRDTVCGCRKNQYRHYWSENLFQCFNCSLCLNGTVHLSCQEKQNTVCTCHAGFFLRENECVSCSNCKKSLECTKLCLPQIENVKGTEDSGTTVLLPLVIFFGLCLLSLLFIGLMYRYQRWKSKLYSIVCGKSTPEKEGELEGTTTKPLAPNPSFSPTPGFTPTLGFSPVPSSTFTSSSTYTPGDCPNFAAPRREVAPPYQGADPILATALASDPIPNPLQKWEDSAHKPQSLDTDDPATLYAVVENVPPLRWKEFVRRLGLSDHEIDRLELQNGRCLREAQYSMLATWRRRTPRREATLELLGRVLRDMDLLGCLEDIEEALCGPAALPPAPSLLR
Kind of assay: ChEBML_212214. The source says:
Inhibition of TNF-alpha binding to TNFRc1

As to `C=CCn1c(S)c2c(=C)c3c(OC)cc(OC)cc3n2c1=S` [2-Allyl-6,8-dimethoxy-9-methyl-imidazo[1,5-a]indole-1,3-dithione], inhibition was half-maximal at 210 nM (IC50).

Take `C=CCn1c(S)c2c(=C)c3c(OC)cc(OC)cc3n2c1=O` [2-Allyl-6,8-dimethoxy-9-methyl-1-thioxo-1,2-dihydro-imidazo[1,5-a]indol-3-one]: the IC50 is 210 nM.

(Values after BindingDB's records for doi:10.1016/s0960-894x(02)00941-1 (Bristol-Myers Squibb Pharmaceuticals, 2003).)
